Measured values published in patent US10696687B2, “Pyrazolo fused heterocyclic compounds as ERK inhibitors” (CHANGZHOU JIEKAI PHARMATECH CO., LTD., priority 2015, dated 2020).

tested on: Colon cancer cells (Colo205 cell line); assay: Colo205 cell proliferation assay (MTT assay, WST-8 readout); type: cell-based; settings: Homo sapiens, COLO 205, 72 hours incubation, absorbance at 450 nm, read-out: Colo 205 cell growth inhibition IC50
Protocol: Compounds disclosed herein were tested for the inhibition of ERK2 by a Colo205 cell proliferation assay commonly known as MTT assay. In this assay, a complete media was prepared by adding 10% fetal bovine serum to RPMI-1640 medium (Life technology). Colon cancer cells (Colo205 cell line) were added to each of 88 wells of a 96 well plate at a seeding density of 5,000 cells/well/90 μL. The cells were allowed to attach to the plate by incubating at 37° C. for 24 hours. The compound was dissolved in DMSO (SIGMA). A solution of test compound was prepared in complete media by serial dilution to obtain the following concentrations: 500 μM, 150 μM, 50 μM, 15 μM, 5 μM, 1.5 μM, 0.5 μM, 0.15 μM and 0.05 μM. The test compound solution (10 μL) was added to each of 80 cell-containing wells. The final concentrations of the compound were following: 50 μM, 15 μM, 5 μM, 1.5 μM, 0.5 μM, 0.15 μM, 0.05 μM, 0.015 μM and 0.005 μM. The final concentration of DMSO is 0.5%. To the 8 remaining cell-containing wells, only complete media (containing 0.5% DMSO) was added to form a control group in order to measure maximal proliferation. To the remaining 8 empty wells, complete media was added to for a vehicle control group in order to measure background. The plates were incubated at 37° C. for 72 hours. 10 μL WST-8 solution (DOJINDO, Cell Counting KIT-8) was added to each well. The plates were further incubated at 37° C. for 2 hours, and then read for the absorbance using a microplate reader at 450 nm.

IC50, 0.052 to 10 µM:
Cc1cc(-c2n[nH]c3ncc(C(=O)N[C@@H]4CN(C)C[C@H]4c4ccccc4Cl)cc23)ccn1 [Compound 33, N-((3S,4R)-4-(2-chlorophenyl)-1-methylpyrrolidin-3-yl)-3-(2-methylpyridin-4-yl)-1H-pyrazolo[3,4-b]pyridine-5-carboxamide]
Cc1cc(-c2n[nH]c3ncc(C(=O)N[C@H]4CN(S(C)(=O)=O)C[C@@H]4c4ccccc4C(F)(F)F)cc23)ccn1 (stereo in doubt) [Compound 20, 3-(2-methylpyridin-4-yl)-N-(-1-(methylsulfonyl)-4-(2-(trifluoromethyl)phenyl)pyrrolidin-3-yl)-1H-pyrazolo[3,4-b]pyridine-5-carboxamide]
Cc1cc(-c2n[nH]c3ncc(C(=O)N[C@H]4CCC[C@@H]4c4ccccc4)cc23)ccn1 [Compound 32]
Cc1cc(-c2n[nH]c3sc(C(=O)NC(c4ccc(F)cc4)C(C)(C)O)cc23)ccn1 (centres unmarked) [Compound 55, N-(1-(4-fluorophenyl)-2-hydroxy-2-methylpropyl)-3-(2-methylpyridin-4-yl)-1H-thieno[2,3-c]pyrazole-5-carboxamide]
Cc1cc(-c2n[nH]c3ncc(C(=O)N[C@H]4CN(C)C[C@@H]4c4ccc(F)cc4F)cc23)ccn1 (relative stereo) [Compound 25, trans-N-(-4-(2,4-difluorophenyl)-1-methylpyrrolidin-3-yl)-3-(2-methylpyridin-4-yl)-1H-pyrazolo[3,4-b]pyridine-5-carboxamide]
Cc1cc(-c2n[nH]c3ncc(NC(=O)N[C@@H](C)c4ccccc4)cc23)ccn1 [Compound 4, (S)-1-(3-(2-methylpyridin-4-yl)-1H-pyrazolo[3,4-b]pyridin-5-yl)-3-(1-phenylethyl)urea]
Cc1cc(-c2n[nH]c3ccc(C(=O)N[C@@H]4CN(C)C[C@H]4c4ccccc4Cl)cc23)ccn1 (relative stereo) [Compound 31, trans-N-(-4-(2-chlorophenyl)-1-methylpyrrolidin-3-yl)-3-(2-methylpyridin-4-yl)-1H-indazole-5-carboxamide]
CCN1C[C@H](NC(=O)c2cnc3[nH]nc(-c4ccnc(C)c4)c3c2)[C@@H](c2ccccc2C(F)(F)F)C1 (relative stereo) [Compound 26, trans-N-(-1-ethyl-4-(2-(trifluoromethyl)phenyl)pyrrolidin-3-yl)-3-(2-methylpyridin-4-yl)-1H-pyrazolo[3,4-b]pyridine-5-carboxamide]
